Experimental data taken from US12295992B2, “Use of ALDH1A and agonist, catalyst and inhibitor thereof” (SHANGHAI INSTITUTES FOR BIOLOGICAL SCIENCES, CHINESE …, priority 2017, dated 2025).

Tests used:
wild-type C57BL/6 mice [1] = assay: Rotating rod experiment in wild-type mice; format: in vivo; conditions: DSF 0.1 or 0.3 mg/g
Protocol: (§1) Four-week-aged mice were given a low dose (0.1 mg/g) or a high dose (0.3 mg/g) of DSF (Sigma, dissolved in olive oil) every two days for 6 weeks. The control group was only given the solvent olive oil (Aladdin). The body weight of the mice was weighed weekly. After 6 weeks of gastric administration, the test of mouse behavior was started. The brains of the control and DSF mice were dissected and taken. After freezing with liquid nitrogen, the brain tissue was homogenized, and ATRA was quantified by the HPLC-MS/MS method as described hereinafter.
After mice were randomized into groups, the motor coordination ability of the mice was recorded using a Rotamex rotarod instrument (Columnbus Instruments). On the same day, the test mice were tested 3 times, each experiment was lasted 5 minutes, and the rotating rod was accelerated from 4 revolutions […]. There were at least 30 minutes between two experiments. The time before the test mice dropped off the rod was automatically recorded by an infrared detection system, and the results of the last test were finally compared.

wild-type C57BL/6 mice [2] = assay: Three-chamber social experiment in wild-type mice; format: in vivo; conditions: DSF 0.3 mg/g
Protocol: Four-week-aged mice were given a low dose (0.1 mg/g) or a high dose (0.3 mg/g) of DSF (Sigma, dissolved in olive oil) every two days for 6 weeks. The control group was only given the solvent olive oil (Aladdin). The body weight of the mice was weighed weekly. After 6 weeks of gastric administration, the test of mouse behavior was started. The brains of the control and DSF mice were dissected and taken. After freezing with liquid nitrogen, the brain tissue was homogenized, and ATRA was quantified by the HPLC-MS/MS method as described hereinafter. A three-chamber social experiment was performed according to previously reported procedures (Sztainberg et al., 2015). Briefly, a transparent acrylic box for social experiment was divided into three chambers of uniform size with removable gates mounted on the partition board. An inverted iron mesh cup was placed in each of the left and right chambers. Two days before the experiment, C57BL/6 mice, which were from different family and whose age was matched with the test mice, were placed in two cups as strange mice for 1 hour each day for accommodation. Test mice were randomized into groups and accommodated to the test chamber for 1 hour before the test started. Each test mouse was placed in the center chamber for 10 minutes for self-exploration, and the chamber door was closed. In the first stage, a strange mouse was randomly placed in the left or right cup (avoiding positional bias), and the inanimate article was placed in the cup on the other side. […] In the second stage, the test mice were kept in the chamber of the strange mouse for 5 minutes, and then another strange mouse was placed in the cup in which the article was previously placed.

wild-type C57BL/6 mice [3] = assay: Open field experiment in wild-type mice; format: in vivo; conditions: DSF 0.1 or 0.3 mg/g vs solvent
Protocol: as §1
Mice were randomized into groups and placed in an open field instrument (Med Associates) for 30 minutes. The Ethovision automatic recording software (Noldus) was used to record the time spent by the mouse in the central region (⅓ to ⅔ of length on each side of the region) and to calculate the ratio of the distance walked in the central region to the total distance.

wild-type C57BL/6 mice [4] = assay: Self-grooming experiment in wild-type mice; format: in vivo; conditions: six weeks, within 10 minutes
Protocol: as §1, with “hereinafter. The mice used in the self-grooming experiment were placed in a cage box filled with a filler having a thickness of about 0.5-1 cm for 10 minutes in advance for accommodation. Then, within 10 minutes, the time of self-grooming in mice was recorded by a double-blind experimenter through a stopwatch.” for “hereinafter.”

[5] = system: ATRA synthesis in the mouse brain; assay: HPLC-MS/MS quantification of ATRA in mouse brain tissue; format: in vivo, mice; conditions: six weeks
Protocol: Four-week-aged mice were given a low dose (0.1 mg/g) or a high dose (0.3 mg/g) of DSF (Sigma, dissolved in olive oil) every two days for 6 weeks. The control group was only given the solvent olive oil (Aladdin). The body weight of the mice was weighed weekly. After 6 weeks of gastric administration, the test of mouse behavior was started. The brains of the control and DSF mice were dissected and taken. After freezing with liquid nitrogen, the brain tissue was homogenized, and ATRA was quantified by the HPLC-MS/MS method as described hereinafter. Sample preparation, retinoid extraction and subsequent HPLC-MS/MS analysis were performed according to the previously reported procedures (Kane et al., 2010). The frozen brains of mice were homogenized on ice with 2 mL of 0.9% saline under red light condition. 13-cis-retinoic acid-d5 (20 ng/mL, TRC) was added into the tissue homogenate as an internal reference. […] The samples were analyzed by HPLC on a 2.1×100 mm Supelcosil ABZ+PLUS column (3 urn, Sigma) column. […] The instrumentation was an AB Sciex 4000 QTRAP LC-MS/MS system, and the ATRA component was quantified in the APCI cation mode, and the ATRA content in each sample was corrected using a standard ATRA curve.

wild-type C57BL/6 mice [6] = assay: Elevated cross maze experiment in wild-type mice; format: in vivo; conditions: DSF 0.1 or 0.3 mg/g vs solvent
Protocol: as §1
Mice were placed in a closed arm of an elevated cross maze (Med Associates) and recording was started for 5 minutes. Image recording was performed using a camera hanged in the air, and the number of times that the mouse entered into the open arm and the closed arm within 5 minutes was recorded and analyzed using ANY-maze software (Stoelting).

[7] = Body weight of mice during DSF administration; format: in vivo; conditions: DSF 0.1 or 0.3 mg/g, weighed weekly, six weeks
Protocol: as §1

## CCN(CC)C(=S)SSC(=S)N(CC)CC [DSF, disulfiram]
wild-type C57BL/6 mice [1]
  sport ability (rotating rod): did not affect the sport ability
wild-type C57BL/6 mice [2]
  increase of time spent in the chamber of familiar social mouse vs solvent group: 50%
  reduction of time staying in the chamber of strange social mouse vs solvent group: 30%
wild-type C57BL/6 mice [3]
  distance of the movement in the open field: no difference
  time staying in the middle area of the open field: no difference
wild-type C57BL/6 mice [4]; DSF 0.1 mg/g
  time of self-grooming: 30 s
wild-type C57BL/6 mice [4]; DSF 0.3 mg/g
  time of self-grooming: 42 s
[5]; DSF 0.1 mg/g oral every other day
  decrease of ATRA level in brain tissue vs solvent group: 30%
[5]; DSF 0.3 mg/g oral every other day
  decrease of ATRA level in brain tissue vs solvent group: 60%
wild-type C57BL/6 mice [6]
  number of times entering the open arm as a percentage of all arm entry: no significant difference
[7]
  body weight between the groups: no significant difference
